Patent US9365576B2, “Pyrrolopyrrolidinone compounds” (Novartis AG, priority 2012, dated 2016)

Target: human MDM2 protein (amino acids 2-188) (Homo sapiens (Human), UniProt Q00987)
Experiment: TR-FRET assay, p53-MDM2 Assay 2 (modified)
Type: binding
Conditions: TR-FRET; 0.1 nM MDM2, 0.1 nM Europium labeled streptavidin, Tecan genios Pro reader; read-out: IC50 p53-MDM2 Assay 2
In short: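 IC50 values were curve-fitted from the time-resolved 665/620 nm emission ratio after 340 nm excitation. The assay combined 0.625 nM europium-streptavidin donor with 1.25 nM C-terminally biotinylated MDM2 2–188 (15 min, RT), followed by 15 min with 10 nM Cy5-labeled p53 18–26 acceptor peptide.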

human MDM2 protein (amino acids 2-188), sequence (Q00987 2-188): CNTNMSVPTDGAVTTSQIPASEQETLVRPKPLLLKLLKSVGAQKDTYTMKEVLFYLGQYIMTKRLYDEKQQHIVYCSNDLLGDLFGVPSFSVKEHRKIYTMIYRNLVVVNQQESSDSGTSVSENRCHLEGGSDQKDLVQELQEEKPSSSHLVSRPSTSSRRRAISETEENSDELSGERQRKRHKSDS

Row | Compound | IC50 [nM]
1 | COc1ccc(C(N)=O)cc1-c1cc2c(n1C(C)C)C(c1ccc(Cl)cc1)N(c1cc(Cl)ccc1C)C2=O (centres unmarked) [Example 61, 3-[5-(5-Chloro-2-methyl-phenyl)-6-(4-chloro-phenyl)-1-isopropyl-4-oxo-1,4,5,6-tetrahydro-pyrrolo[3,4-b]pyrrol-2-yl]-4-methoxy-benzamide] | 0.104
2 | COc1nc(N(C)C)ncc1-c1cc2c(n1C(C)C)[C@H](c1ccc(Cl)cc1)N(c1c[nH]c(=O)c(Cl)c1)C2=O [Example 188, (S)-5-(5-Chloro-6-oxo-1,6-dihydro-pyridin-3-yl)-6-(4-chloro-phenyl)-2-(2-dimethylamino-4-methoxy-pyrimidin-5-yl)-1-isopropyl-5,6-dihydro-1H-pyrrolo[3,4-b]pyrrol-4-one] | 0.079
3 | COc1ccc(C(=O)N(C)C)cc1-c1cc2c(n1C(C)C)[C@H](c1ccc(Cl)cc1)N(c1cc(Cl)ccc1C)C2=O [Example 20, 3-[(S)-5-(5-Chloro-2-methyl-phenyl)-6-(4-chloro-phenyl)-1-isopropyl-4-oxo-1,4,5,6-tetrahydro-pyrrolo[3,4-b]pyrrol-2-yl]-4-methoxy-N,N-dimethyl-benzamide] | 0.075
4 | COc1ccccc1-c1c(F)c2c(n1C(C)C)C(c1ccc(Cl)cc1)N(c1cc(Cl)ccc1C)C2=O (centres unmarked) [Example 115, 5-(5-Chloro-2-methyl-phenyl)-6-(4-chloro-phenyl)-3-fluoro-1-isopropyl-2-(2-methoxy-phenyl)-5,6-dihydro-1H-pyrrolo[3,4-b]pyrrol-4-one] | 0.485
5 | COC[C@@H](C)n1c(-c2cnc(N)nc2OC)cc2c1[C@H](c1ccc(Cl)cc1)N(c1ccc(F)c(Cl)c1)C2=O [Example 229] | 0.078
6 | COc1nc(N(C)C)ncc1-c1cc2c(n1C(C)C)C(c1ccc(C#N)c(F)c1)N(c1cc(Cl)c(=O)n(C)c1)C2=O (centres unmarked) [Example 194, 4-[5-(5-Chloro-1-methyl-6-oxo-1,6-dihydro-pyridin-3-yl)-2-(2-dimethylamino-4-methoxy-pyrimidin-5-yl)-1-isopropyl-4-oxo-1,4,5,6-tetrahydro-pyrrolo[3,4-b]pyrrol-6-yl]-2-fluoro-benzonitrile] | 0.194
7 | COc1nc(N(C)C)ncc1-c1cc2c(n1C(C)C)[C@@H](c1ccc(C#N)cc1)N(c1cc(Cl)c(=O)n(C)c1)C2=O [Example 233, (R)-4-(5-(5-Chloro-1-methyl-6-oxo-1,6-dihydropyridin-3-yl)-2-(2-(dimethylamino)-4-methoxypyrimidin-5-yl)-1-isopropyl-4-oxo-1,4,5,6-tetrahydropyrrolo[3,4-b]pyrrol-6-yl)benzonitrile] | 60.2
8 | COc1ccccc1-c1cc2c(n1C(C)C)C(c1ccc(Cl)cc1)N(c1cc(Cl)c(=O)n(C)c1)C2=O (centres unmarked) [Example 46, 5-(5-Chloro-1-methyl-6-oxo-1,6-dihydro-pyridin-3-yl)-6-(4-chloro-phenyl)-1-isopropyl-2-(2-methoxy-phenyl)-5,6-dihydro-1H-pyrrolo[3,4-b]pyrrol-4-one] | 0.203
9 | COc1nc(N(C)C)ncc1-c1cc2c(n1C(C)C)C(c1ccc(C#N)cc1)N(c1cc(Cl)cn(C)c1=O)C2=O (centres unmarked) [Example 131, 4-[5-(5-Chloro-1-methyl-2-oxo-1,2-dihydro-pyridin-3-yl)-2-(2-dimethylamino-4-methoxy-pyrimidin-5-yl)-1-isopropyl-4-oxo-1,4,5,6-tetrahydro-pyrrolo[3,4-b]pyrrol-6-yl]-benzonitrile] | 0.295
10 | COc1ccc(C(=O)N(C)C)cc1-c1cc2c(n1C(C)C)[C@@H](c1ccc(Cl)cc1)N(c1cc(Cl)ccc1C)C2=O [Example 21, 3-[(R)-5-(5-Chloro-2-methyl-phenyl)-6-(4-chloro-phenyl)-1-isopropyl-4-oxo-1,4,5,6-tetrahydro-pyrrolo[3,4-b]pyrrol-2-yl]-4-methoxy-N,N-dimethyl-benzamide] | 621
11 | COc1ncncc1-c1cc2c(n1C(C)C)C(c1ccc(Cl)cc1)N(c1cc(Cl)ccc1C)C2=O (centres unmarked) [Example 16, 5-(5-Chloro-2-methyl-phenyl)-6-(4-chloro-phenyl)-1-isopropyl-2-(4-methoxy-pyrimidin-5-yl)-5,6-dihydro-1H-pyrrolo[3,4-b]pyrrol-4-one] | 0.308
12 | COc1ncc(-c2cc3c(n2C(C)C)C(c2ccc(C#N)cc2)N(C2CCOCC2)C3=O)c(OC)n1 (centres unmarked) [Example 157, 4-[2-(2,4-Dimethoxy-pyrimidin-5-yl)-1-isopropyl-4-oxo-5-(tetrahydro-pyran-4-yl)-1,4,5,6-tetrahydro-pyrrolo[3,4-b]pyrrol-6-yl]-benzonitrile] | 7.9
13 | [2H]C([2H])([2H])Oc1ncc(-c2cc3c(n2C(C)C)[C@H](c2ccc(Cl)cc2)N(c2cc(Cl)c(=O)n(C)c2)C3=O)c(OC([2H])([2H])[2H])n1 [Example 218, (S)-5-(5-Chloro-1-methyl-6-oxo-1,6-dihydro-pyridin-3-yl)-6-(4-chloro-phenyl)-2-(2,4-d6-dimethoxy-pyrimidin-5-yl)-1-isopropyl-5,6-dihydro-1H-pyrrolo[3,4-b]pyrrol-4-one] | 0.106
14 | COc1ncc(-c2cc3c(n2C(C)C)C(c2ccc(Cl)cn2)N(c2ccc(F)c(Cl)c2)C3=O)c(OC)n1 (centres unmarked) [Example 214, 5-(3-Chloro-4-fluoro-phenyl)-6-(5-chloro-pyridin-2-yl)-2-(2,4-dimethoxy-pyrimidin-5-yl)-1-isopropyl-5,6-dihydro-1H-pyrrolo[3,4-b]pyrrol-4-one] | 1.89
15 | COc1ncc(-c2cc3c(n2C(C)C)C(c2ccc(Cl)cc2)N(c2cc(Cl)ccc2C)C3=O)c(OC)n1 (centres unmarked) [Example 14, 5-(5-Chloro-2-methyl-phenyl)-6-(4-chloro-phenyl)-2-(2,4-dimethoxy-pyrimidin-5-yl)-1-isopropyl-5,6-dihydro-1H-pyrrolo[3,4-b]pyrrol-4-one] | 0.068
16 | COc1nc(N)ncc1-c1cc2c(n1C(C)C)C(c1ccc(C#N)cc1)N(c1cc(Cl)ccc1C)C2=O (centres unmarked) [Example 43] | 0.401
17 | CNS(=O)(=O)c1ccc(OC)c(-c2cc3c(n2C(C)C)C(c2ccc(Cl)cc2)N(c2cc(Cl)ccc2C)C3=O)c1 (centres unmarked) [Example 62, 3-[5-(5-Chloro-2-methyl-phenyl)-6-(4-chloro-phenyl)-1-isopropyl-4-oxo-1,4,5,6-tetrahydro-pyrrolo[3,4-b]pyrrol-2-yl]-4-methoxy-N-methyl-benzenesulfonamide] | 0.169

Next, values leading:

Row | IC50 [nM] | Compound
18 | 0.234 | COc1ccc(C(=O)O)cc1-c1cc2c(n1C(C)C)C(c1ccc(Cl)cc1)N(c1cc(Cl)c(=O)n(C)c1)C2=O (stereo not drawn) [Example 50, 3-[5-(5-Chloro-1-methyl-6-oxo-1,6-dihydro-pyridin-3-yl)-6-(4-chloro-phenyl)-1-isopropyl-4-oxo-1,4,5,6-tetrahydro-pyrrolo[3,4S-b]pyrrol-2-yl]-4-methoxy-benzoic acid]
19 | 0.393 | COc1nc(N(C)C)ncc1-c1cc2c(n1C(C)C)C(c1ccc(Cl)cc1)N(c1cn(C)c(=O)cc1C)C2=O (centres unmarked) [Example 112, 6-(4-Chloro-phenyl)-2-(2-dimethylamino-4-methoxy-pyrimidin-5-yl)-5-(1,4-dimethyl-6-oxo-1,6-dihydro-pyridin-3-yl)-1-isopropyl-5,6-dihydro-1H-pyrrolo[3,4-b]pyrrol-4-one]
20 | 0.376 | COc1ccccc1-c1cc2c(n1C(C)C)C(c1ccc(Cl)cc1C)N(c1cc(Cl)ccc1C)C2=O (centres unmarked) [Example 30, 5-(5-Chloro-2-methyl-phenyl)-6-(4-chloro-2-methyl-phenyl)-1-isopropyl-2-(2-methoxy-phenyl)-5,6-dihydro-1H-pyrrolo[3,4-b]pyrrol-4-one]
21 | 115 | COc1nc(N)ncc1-c1cc2c(n1C(C)C)[C@@H](c1ccc(C#N)cc1)N(c1ccc(F)c(Cl)c1)C2=O [Example 172, 4-[(R)-2-(2-Amino-4-methoxy-pyrimidin-5-yl)-5-(3-chloro-4-fluoro-phenyl)-1-isopropyl-4-oxo-1,4,5,6-tetrahydro-pyrrolo[3,4-b]pyrrol-6-yl]-benzonitrile]
22 | 0.357 | COc1nc(N(C)C)ncc1-c1cc2c(n1C(C)C)[C@H](c1ccc(C#N)cc1)N(c1ccc(F)c(Cl)c1)C2=O [Example 169, 4-[(S)-5-(3-Chloro-4-fluoro-phenyl)-2-(2-dimethylamino-4-methoxy-pyrimidin-5-yl)-1-isopropyl-4-oxo-1,4,5,6-tetrahydro-pyrrolo[3,4-b]pyrrol-6-yl]-benzonitrile]
23 | 0.161 | COc1nc(N(C)C)ncc1-c1cc2c(n1C(C)C)C(c1ccc(Cl)cc1)N(c1cc(Cl)cn(C)c1=O)C2=O (centres unmarked) [Example 73, 5-(5-Chloro-1-methyl-2-oxo-1,2-dihydro-pyridin-3-yl)-6-(4-chloro-phenyl)-2-(2-dimethylamino-4-methoxy-pyrimidin-5-yl)-1-isopropyl-5,6-dihydro-1H-pyrrolo[3,4-b]pyrrol-4-one]
24 | 0.188 | COc1ccc(-c2nnn[nH]2)cc1-c1cc2c(n1C(C)C)C(c1ccc(Cl)cc1)N(c1cc(Cl)ccc1C)C2=O (centres unmarked) [Example 34, 5-(5-Chloro-2-methyl-phenyl)-6-(4-chloro-phenyl)-1-isopropyl-2-[2-methoxy-5-(1H-tetrazol-5-yl)-phenyl]-5,6-dihydro-1H-pyrrolo[3,4-b]pyrrol-4-one]
25 | 0.137 | COc1nc(N(C)C)ncc1-c1cc2c(n1C(C)C)C(c1ccc(Cl)cc1)N(c1cc(Cl)c(=O)n(C)c1)C2=O (centres unmarked) [Example 52, 5-(5-Chloro-1-methyl-6-oxo-1,6-dihydro-pyridin-3-yl)-6-(4-chloro-phenyl)-2-(2-dimethylamino-4-methoxy-pyrimidin-5-yl)-1-isopropyl-5,6-dihydro-1H-pyrrolo[3,4-b]pyrrol-4-one]
26 | 0.176 | COc1ccncc1-c1cc2c(n1C(C)C)C(c1ccc(Cl)cc1)N(c1cc(Cl)ccc1C)C2=O (centres unmarked) [Example 13, 5-(5-Chloro-2-methyl-phenyl)-6-(4-chloro-phenyl)-1-isopropyl-2-(4-methoxy-pyridin-3-yl)-5,6-dihydro-1H-pyrrolo[3,4-b]pyrrol-4-one]
